Key:
Format in all cases: in vivo
[1] = system: carageenin induced oedema; assay: carrageenin induced oedema test in the rat; conditions: for inhibitions (carrageenin oedema) versus controls: dose not given
Excerpt: In a conventional carageenin induced oedema test in the rat, the results were as follows: […]

[2] = system: cotton pellet induced granuloma; assay: cotton pellet induced granuloma test
Excerpt: In a convention cotton pellet induced granuloma test, the results were as follows: I

[3] = system: phenylquinone induced mouse writhing; assay: phenylquinone induced mouse writhing test; conditions: po; for inhibition at 16 mg/kg: 16 mg/kg per os
Excerpt: In a conventional phenylquinone induced mouse writhing test, compound 1, 3 and 4 were active at the following dose per os.

CC(=O)OC(C)CCc1cc(C)c(C(=O)c2cccn2C)n1C (stereo not drawn) [Compound 7, 2-Acetoxy-4-(1',4'-Dimethvl-5'-(1"-methyl-2"-pvrroloyl)-2'-pyrryl)butane]
inhibitions (carrageenin oedema) versus controls [1]: significantly different from controls

Cn1cccc1C(=O)c1ccc(CC(=O)O)n1C [Compound 1, 2-Carboxymethyl-1-methyl-5-(1'-methyl-2'-pyrroloyl)pyrrrole]
inhibition at 20 mg/kg ([1]; dose 20 mg/kg, * 0.05>p>0.02): 19%
Mean Oedema ([1]; dose 20 mg/kg, control 145.3 + 10.3): 117.7 + 6.6
inhibition at 10 mg/kg ([2]; dose 10 mg/kg, * 0.05>p>0.02): 22%
Granuloma Wt. ([2]; dose 10 mg/kg, control 48.1): 37.6 mg
inhibition at 16 mg/kg [3]: 90%

Cc1cc(CCC(=O)O)n(C)c1C(=O)c1cccn1C [Compound 4, 2-(2'-Carboxyethyl)-1,4-dimethyl-5-(1"-methyl-2" pyrroloyl) pyrrole]
inhibition at 16 mg/kg [3]: 60%

Cc1cc(CC(=O)O)n(C)c1C(=O)c1cccn1C [Compound 3, 2-Carboxymethyl-1,4-dimethyl-5-(1'-methyl-2'-pyrroloyl) pyrrole]
inhibition at 12.5 mg/kg ([1]; dose 12.5 mg/kg, ** 0.01>p>0.001): 33%
Mean Oedema ([1]; dose 12.5 mg/kg, control 106.0 + 6.01): 70.62 + 6.31
inhibition at 5 mg/kg ([2]; dose 5 mg/kg, ** 0.01>p>0.001): 26%
Granuloma Wt. ([2]; dose 5 mg/kg, control 35.2): 26.1 mg
inhibition at 16 mg/kg [3]: 100%
ED50 ([3]; separate test): 2.8 mg/kg

Cc1cc(CCC(C)O)n(C)c1C(=O)c1cccn1C (stereo not drawn) [Compound 6, 4-(1',4-Dimethyl-5'-(1"-methyl-2"-pyrroloyl)-2'-pyrryl) butan-2-ol]
inhibitions (carrageenin oedema) versus controls [1]: significantly different from controls

CC(=O)CCc1cc(C)c(C(=O)c2cccn2C)n1C [Compound 5, 4-(1',4'-Dimethyl-5'-(1"-methyl-2"-pyrroloyl)-2'-pyrryl) butan-2-one]
inhibitions (carrageenin oedema) versus controls [1]: significantly different from controls

From EP0032048A1, “Pyrroloylpyrrole derivatives, processes for their preparation and their use” (BEECHAM GROUP PLC, priority 1980, dated 1981)
